Some results are limits rather than exact numbers.

For this experiment, the target named is T1, DNA polymerase theta [1-899] (UniProt O75417).
T1 construct: 1-899
The experiment in a line: ATPase activity of Pol theta (1-899) was determined using the assay. The protocol: Pol Theta ATPase activity was determined by measuring the rate of ATP turn over in a NADH oxidation-coupled enzymatic assay. 10-point dilution series of compounds were used in a 384 well format for the inhibition assays. Pol theta (1-899) (10 nM) in assay buffer (20 mM Tris HCl (pH 7.80), 80 mM KCl, 10 mM MgCl2, 1 mM DTT, 0.01% BSA, 0.01% Tween, 5% glycerol) was transferred to the test wells (20 μL), except the low control wells (20 μL of assay buffer was added to the low control wells). The plate was then incubated at room temperature for 15 min. An equal volume (20 μL) of 100 μM ATP, 300 nM dT50 (single-stranded DNA (ssDNA) containing 50 thymine bases), 300 μM NADH, 6 mM PEP, 10 U/mL lactate dehydrogenase and 20 U/mL pyruvate kinase in assay buffer was added to all the test wells. The plate was then centrifuged at 1000 rpm for 1 min. The reaction was monitored for 30 min by measuring absorbance (λ=340 nm) in a Tecan Spark multimode plate reader every minute. The high control (DMSO with enzyme) with low absorbance intensity represents no inhibition of ATPase reaction while the low control (DMSO with buffer) with high absorbance intensity represents full inhibition of ATPase activity. Slope of the reaction progress curves were used to calculate the rate of ATP hydrolysis.

T1 sequence (O75417 1-899): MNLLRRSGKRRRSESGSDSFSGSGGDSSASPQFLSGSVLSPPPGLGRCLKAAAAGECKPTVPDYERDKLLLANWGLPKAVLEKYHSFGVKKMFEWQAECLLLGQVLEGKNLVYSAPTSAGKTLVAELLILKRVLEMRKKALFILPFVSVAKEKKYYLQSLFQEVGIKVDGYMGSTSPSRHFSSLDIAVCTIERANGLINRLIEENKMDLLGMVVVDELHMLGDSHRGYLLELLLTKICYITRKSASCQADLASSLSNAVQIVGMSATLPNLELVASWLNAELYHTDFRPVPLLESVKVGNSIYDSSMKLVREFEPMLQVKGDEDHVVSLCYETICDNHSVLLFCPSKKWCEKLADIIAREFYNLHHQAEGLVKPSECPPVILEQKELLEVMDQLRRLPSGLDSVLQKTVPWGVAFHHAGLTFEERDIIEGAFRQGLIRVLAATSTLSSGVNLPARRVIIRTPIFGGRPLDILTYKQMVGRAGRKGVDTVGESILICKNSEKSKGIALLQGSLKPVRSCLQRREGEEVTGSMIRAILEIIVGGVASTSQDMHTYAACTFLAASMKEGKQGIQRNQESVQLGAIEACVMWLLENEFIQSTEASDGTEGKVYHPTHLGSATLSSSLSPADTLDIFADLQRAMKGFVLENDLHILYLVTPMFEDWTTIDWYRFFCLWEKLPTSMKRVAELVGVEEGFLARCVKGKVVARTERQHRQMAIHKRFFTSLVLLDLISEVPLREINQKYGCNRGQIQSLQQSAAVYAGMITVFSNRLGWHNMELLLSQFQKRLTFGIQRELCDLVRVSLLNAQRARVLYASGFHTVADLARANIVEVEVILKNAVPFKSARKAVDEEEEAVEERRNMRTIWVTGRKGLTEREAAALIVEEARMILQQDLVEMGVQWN

The term IC50 denotes the concentration that inhibits the measured activity by half. A low value points to greater potency in that assay. Regarding `CC(C)(O)C#Cc1ccc(C(=O)Nc2nnc(OCc3ccc(Cl)cc3)s2)c(N2CCOCC2)n1` [US12509454, Compound 29], the concentration for half-maximal inhibition (IC50) is > 1000 nM.

Take `N#Cc1cc(-c2c(F)cccc2OC(F)F)c(C(=O)Nc2nnc(OCc3ccc(Cl)cn3)s2)cn1` [US12509454, Compound 193]: the IC50 was < 200 nM.

For `O=C(Nc1nnc(OCc2ccc(Cl)cc2)s1)c1ccncc1N1CCO[C@@H]2C[C@@H]21` (mixture of isomers) [US12509454, Compound 178], the IC50 was < 200 nM.

Consider `O=C(Nc1nnc(OCc2ccc(Cl)cc2)s1)c1cccnc1N1CCC(O)CC1` [US12509454, Compound 20], for which the IC50 was > 1000 nM.
